pEC50, pKd: −log10 of the molar value.
Key:
BCL-w = molecular target: T1, BCL-w (Homo sapiens, UniProt Q92843); test: BCL-binding assay (AlphaLISA competition, BIM peptide); conditions: 6xHis BCL-w with biotinylated BIM peptide, 24 hr incubation
T1 sequence (Q92843 1-193): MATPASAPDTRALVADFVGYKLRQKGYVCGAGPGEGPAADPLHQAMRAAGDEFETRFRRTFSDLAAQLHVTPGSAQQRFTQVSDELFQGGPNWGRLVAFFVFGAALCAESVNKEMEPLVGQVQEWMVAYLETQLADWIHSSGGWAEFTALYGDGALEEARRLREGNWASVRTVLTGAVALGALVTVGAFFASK
Protocol: (§1) Compounds were prepared as 400× DMSO stock solutions in a 1:4 dilution series then diluted […] in assay buffer (25 mM HEPES pH 7.5, 100 mM NaCl, 0.1% BSA, 0.005% Tween) immediately before use. Aliquots of 400 nM 6xHis-tagged BCL-xL, BCL-2, and BCL-w were thawed on ice and diluted to 0.4 (BCL-XL) or 0.8 (BCL-W and 2) nM in assay buffer. Aliquots of biotinylated BIM and BAD peptides were diluted in assay buffer to 120 and 60 nM respectively. Ten microliters of biotinylated peptide were added to wells of a 96-well PCR plate, followed by ten microliters of inhibitor, then ten microliters of BCL protein, BCL-XL with BAD and BCL-W/2 with BIM. The plates were sealed and incubated at room temperature. After 24 hr, 0.16 μg Anti-His conjugated AlphaLISA acceptor beads were added in 5 μL assay buffer. After one hour at room temperature, 0.16 μg AlphaScreen streptavidin donor beads were added in 5 μL assay buffer and plates were incubated an additional 30 min in the dark. Two 17 μL aliquots of each reaction were plated in a Perkin Elmer 384-well proxiplate, and plates were scanned for using a Perkin Elmer Enspire plate reader. Kd values were calculated in Prism Graph Pad using a one site competitive binding model and previously determined Kd values for each protein peptide pair. […]

BCL-2 = BCL-2 (Homo sapiens, UniProt P10415); test: as above; conditions: 6xHis BCL-2 with biotinylated BIM peptide, 24 hr incubation
Protocol: as §1

BCL-xL = BCL-xL (Homo sapiens, UniProt Q07817); test: BCL-binding assay (AlphaLISA competition, BAD peptide); conditions: 6xHis BCL-xL with biotinylated BAD peptide, 24 hr incubation
Protocol: as §1

[1] = test system: IMR-90 SnC (irradiated senescent IMR90 cells); test: Senolysis assay (CellTiter-Glo viability); type: cell-based, human; conditions: for pEC50: Homo sapiens, IMR-90, light or radiation study, 72 h, X-ray irradiated senescent IMR90 cells, viability three days after compound addition; for SI (ratio of EC50 of non-senescent cells to EC50 of senescent cells): IMR90 non-senescent vs senescent cells
Protocol: IMR90 cells are maintained in DMEM supplemented with 10% FBS. To prepare a senescent population, cells were trypsinized, diluted to 50,000 per mL, and irradiated with 10-15 Gy of X-ray irradiation. Irradiated cells were plated at 5000 cells per well in one third of a 96-well plate and maintained for two weeks prior to the assay. Four days prior to the assay, non-senescent IMR90s were plated at 2500 per well in the second third of the plate. One day prior to the assay, 2500 non-senescent cells were plated in the final third of the plate. Compounds were prepared as a 200×DMSO dilution series then diluted to 1× in media immediately before adding to cells. Three days after compound addition, cell viability was measured using CellTiter-Glo reagent from Promega. Viability was calculated relative to a DMSO control and EC50 values are calculated in Prism GraphPad. […] The selectivity (SI) of the compounds described herein is a ratio of the EC50 of non-senescent cells to the EC50 of senescent cells. The SI of the compounds described herein is 10 or above for “A” selectivity, between 2 and 10 for “B” selectivity or 2 or less for “C” selectivity.

Sequence of BCL-xL (Q07817 whole entry, species assumed): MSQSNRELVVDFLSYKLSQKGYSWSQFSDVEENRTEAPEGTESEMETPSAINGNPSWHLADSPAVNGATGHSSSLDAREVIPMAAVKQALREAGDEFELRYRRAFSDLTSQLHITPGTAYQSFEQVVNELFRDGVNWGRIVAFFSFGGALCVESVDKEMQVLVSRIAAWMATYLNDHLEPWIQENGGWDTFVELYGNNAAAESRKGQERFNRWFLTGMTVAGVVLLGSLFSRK
Sequence of BCL-2 (P10415 whole entry, species assumed): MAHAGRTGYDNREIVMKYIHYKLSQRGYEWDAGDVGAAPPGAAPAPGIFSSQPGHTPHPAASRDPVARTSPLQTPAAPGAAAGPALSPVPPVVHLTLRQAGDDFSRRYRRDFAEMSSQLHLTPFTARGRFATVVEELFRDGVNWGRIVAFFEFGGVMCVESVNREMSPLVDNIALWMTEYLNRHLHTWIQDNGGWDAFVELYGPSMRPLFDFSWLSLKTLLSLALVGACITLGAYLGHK

Row | SMILES | pKd (BCL-w) | pKd (BCL-2) | pKd (BCL-xL) | pEC50 [1] | SI (ratio of EC50 of non-senescent cells to EC50 of senescent cells) [1]
1 | CCOP(=O)(CN1CCN(CC[C@H](CSc2ccccc2)Nc2ccc(S(=O)(=O)NC(=O)c3ccc(N4CCN(CC5=C(c6ccc(Cl)cc6)CCC(C)(C)C5)CC4)cc3)cc2S(=O)(=O)C(F)(F)F)CC1)OCC [Compound 6] | 8.00 to 9.00 | > 9.00 | > 9.00 | > 6.00 | A (10 or above)
2 | CC1(C)CCC(c2ccc(Cl)cc2)=C(CN2CCN(c3ccc(C(=O)NS(=O)(=O)c4ccc(N[C@H](CCN5CCN(CP(=O)(O)O)CC5)CSc5ccccc5)c(S(=O)(=O)C(F)(F)F)c4)cc3)CC2)C1 [Compound 7] | 7.30 to 8.00 | > 9.00 | > 9.00 | < 5.00 | B (between 2 and 10)
3 | CCOP(=O)(CCN1CCN(CC[C@H](CSc2ccccc2)Nc2ccc(S(=O)(=O)NC(=O)c3ccc(N4CCN(CC5=C(c6ccc(Cl)cc6)CCC(C)(C)C5)CC4)cc3)cc2S(=O)(=O)C(F)(F)F)CC1)OCC [Compound 9] | 8.00 to 9.00 | > 9.00 | > 9.00 | > 6.00 | A (10 or above)
4 | CCOP(=O)(CCN(C)CC[C@H](CSc1ccccc1)Nc1ccc(S(=O)(=O)NC(=O)c2ccc(N3CCN(CC4=C(c5ccc(Cl)cc5)CCC(C)(C)C4)CC3)cc2)cc1S(=O)(=O)C(F)(F)F)OCC [Compound 10] | 8.00 to 9.00 | > 9.00 | > 9.00 | 5.00 to 6.00 | A (10 or above)
5 | CCOP(=O)(O)CCN(C)CC[C@H](CSc1ccccc1)Nc1ccc(S(=O)(=O)NC(=O)c2ccc(N3CCN(CC4=C(c5ccc(Cl)cc5)CCC(C)(C)C4)CC3)cc2)cc1S(=O)(=O)C(F)(F)F [Compound 11] | 8.00 to 9.00 | > 9.00 | > 9.00 | < 5.00 | C (2 or less)
6 | CN(CC[C@H](CSc1ccccc1)Nc1ccc(S(=O)(=O)NC(=O)c2ccc(N3CCN(CC4=C(c5ccc(Cl)cc5)CCC(C)(C)C4)CC3)cc2)cc1S(=O)(=O)C(F)(F)F)CCP(=O)(O)O [Compound 12] | 7.30 to 8.00 | > 9.00 | > 9.00 | < 5.00 | –
7 | CC1(C)CCC(c2ccc(Cl)cc2)=C(CN2CCN(c3ccc(C(=O)NS(=O)(=O)c4ccc(N[C@H](CCN5CCN(CCP(=O)(O)O)CC5)CSc5ccccc5)c(S(=O)(=O)C(F)(F)F)c4)cc3)CC2)C1 [Compound 13] | 8.00 to 9.00 | > 9.00 | > 9.00 | < 5.00 | –
8 | CCOP(=O)(O)CCN1CCN(CC[C@H](CSc2ccccc2)Nc2ccc(S(=O)(=O)NC(=O)c3ccc(N4CCN(CC5=C(c6ccc(Cl)cc6)CCC(C)(C)C5)CC4)cc3)cc2S(=O)(=O)C(F)(F)F)CC1 [Compound 14] | 8.00 to 9.00 | > 9.00 | > 9.00 | < 5.00 | –
9 | CC(C)OP(=O)(CN1CCN(CC[C@H](CSc2ccccc2)Nc2ccc(S(=O)(=O)NC(=O)c3ccc(N4CCN(CC5=C(c6ccc(Cl)cc6)CCC(C)(C)C5)CC4)cc3)cc2S(=O)(=O)C(F)(F)F)CC1)OC(C)C [Compound 15] | 7.30 to 8.00 | > 9.00 | > 9.00 | 5.00 to 6.00 | B (between 2 and 10)

— patent US11111259B2, “Acylsulfonamide derivatives for treating senescence-associated diseases and disorders” (Unity Biotechnology, Inc., priority 2015, dated 2021)
